Marks after values point to notes of the source that are not given here.
System: ANTIGEN-INDUCED VASCULAR PERMEABILITY CHANGES IN GUINEA-PIG CONJUNCTIVA
Experiment: Inhibition of antigen-induced ocular inflammation (vascular permeability, extravasation of [99mTc]-human serum albumin into the conjunctiva)
Format: in vivo
Conditions: ovalbumin-sensitized guinea-pigs
Experimental: Guinea-pigs were actively sensitized to produce IgG1 and IgE antibodies to ovalbumin (2 weeks). Animals were then challenged topically in the eyes (10 µl of 2.5% w/v ovalbumin per eye) followed by intravenous administration of [^99mTc]-human serum albumin (0.25 mCi). Animals were then challenged with antigen either once or twice (2nd challenge 24 hours later). The response was a marked increase in vascular permeability as measured by extravasation of [^99mTc]-labelled human serum albumin into the conjunctiva.
To measure the inhibitory effect of Compounds I-IV, at varying times before antigen challenge, Compounds I-IV were administered either i.v. (1 mg/kg dosage) or topically (0.1% suspensions or_ solutions in 10 µl of 0.5% hydroxy ethylcellulose).

[1] = single challenge, topical 0.1% in 10 µl of 0.5% hydroxy ethylcellulose, pre-treat. time 5 min
[2] = second challenge (24 hours later), topical 0.1% in 10 µl of 0.5% hydroxy ethylcellulose, pre-treat. time 5 min

| SMILES | % Inhib. (second challenge (24 hours later), topical 0.1% in 10 µl of 0.5% hydroxy ethylcellulose, pre-treat. time 60 min) | % Inhib. [1] | % Inhib. [2] | % Inhib. (second challenge (24 hours later), i.v. 1 mg/kg, pre-treat. time 2 min) | % Inhib. (single challenge, i.v. 1 mg/kg, pre-treat. time 2 min) [%] |
| --- | --- | --- | --- | --- | --- |
| OCc1ccccc1C=CCc1cc2c(cc1O)CCO2 [IV, 2,3-dihydro-6-(3-(2-hydroxymethyl)phenyl-2-propenyl)-5-benzofuranol] | 59.5* % | 28.8** % | – | – | – |
| COc1ccc2nc3cc(OC)c(=O)c(Br)c-3sc2c1 [III, 4-bromo-2,7-dimethoay-3H-phenothiazin-3-one] | – | 38.8*** % | 48.0* % | – | – |
| CCCc1c(OCCCSc2ccc([C@H](O)[C@@H](C)CC(=O)O)cc2)ccc(C(C)=O)c1O (relative stereo) [II, (BS^*,YR^*)-4-(3-(4-acetyl-3-hydroxy-2-propyl-phenoxy)propylthio)-Y-hydroxy-B-methylbenzene-butanoic acid] | – | 0% | 30.3* % | – | – |
| CCCc1c(OCCCS(=O)(=O)c2ccc(C(=O)CCC(=O)O)cc2)ccc(C(C)=O)c1O [Compound I, 4-((3-(4-acetyl-3-hydroxy-2-propylphenoxy)-propyl)sulfonyl)-Y-oxobenzene butanoic acid] | – | 1.7% | 37.0** % | 42.2** % | 1.5 |

From patent EP0247723A2, “Compositions and methods for treating allergic conjuctivitis” (MERCK FROSST CANADA INC., priority 1986, dated 1987)
